The source made the active and inactive calls.
How the values were obtained:
Type in all cases: functional
[1] = target: Death-associated protein kinase 3 (Homo sapiens, UniProt O43293);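 note: measured as one member of a kinome-wide profiling panel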
[2] = target: Protein-tyrosine kinase 6 (Homo sapiens, UniProt Q13882)
[3] = target: Mitogen-activated protein kinase 8 (Homo sapiens, UniProt P45983);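 note: value comes from one member of a kinome-wide kinase profiling panel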
[4] = target: Vascular endothelial growth factor receptor 1 (Homo sapiens, UniProt P17948);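 note: measured within a kinome-wide profiling panel, FLT1 as the panel member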
[5] = target: Tyrosine-protein kinase Fyn (Homo sapiens, UniProt P06241)
[6] = target: Misshapen-like kinase 1 (Homo sapiens, UniProt Q8N4C8);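 note: kinome panel screen with MINK as the panel member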
[7] = target: Proto-oncogene tyrosine-protein kinase receptor Ret (Homo sapiens, UniProt P07949);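 note: measured within a kinome-wide profiling panel, RET as the panel member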
[8] = target: RAC-alpha serine/threonine-protein kinase (Homo sapiens, UniProt P31749);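 note: AKT1 affinity measured as one member of a kinome-wide kinase profiling panel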
[9] = target: Casein kinase I isoform gamma-1 (Homo sapiens, UniProt Q9HCP0);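 note: measured as the CSNK1G1 member of a kinome profiling panel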
[10] = target: Serine/threonine-protein kinase pim-3 (Homo sapiens, UniProt Q86V86);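 note: value obtained as one member of a broad kinase panel profiling effort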
[11] = target: Receptor tyrosine-protein kinase erbB-4 (Homo sapiens, UniProt Q15303);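 note: ERBB4 member of a kinome-wide kinase profiling panel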
[12] = target: Hepatocyte growth factor receptor (Homo sapiens, UniProt P08581);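 note: kinase panel profiling across the kinome, with MET as the panel member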
[13] = target: ALK tyrosine kinase receptor (Homo sapiens, UniProt Q9UM73);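 note: ALK tested as one member of a kinase panel screen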
[14] = target: Insulin receptor (Homo sapiens, UniProt P06213);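 note: insulin receptor kinase tested as one member of a kinome-wide kinase panel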
[15] = target: STE20-like serine/threonine-protein kinase (Homo sapiens, UniProt Q9H2G2)
[16] = target: Mitogen-activated protein kinase kinase kinase 20 (Homo sapiens, UniProt Q9NYL2)
[17] = target: MAP kinase-activated protein kinase 3 (Homo sapiens, UniProt Q16644);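 note: value comes from a kinome-wide profiling panel in which MAPKAPK3 is one of the panel members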
[18] = target: Glycogen synthase kinase-3 beta (Homo sapiens, UniProt P49841);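 note: value comes from a broad kinome profiling panel, with GSK3B as the panel member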
[19] = target: Tyrosine-protein kinase JAK2 (Homo sapiens, UniProt O60674);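 note: JAK2 tested as one member of a kinase panel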
Tyrosine-protein kinase JAK2, sequence (O60674 whole entry): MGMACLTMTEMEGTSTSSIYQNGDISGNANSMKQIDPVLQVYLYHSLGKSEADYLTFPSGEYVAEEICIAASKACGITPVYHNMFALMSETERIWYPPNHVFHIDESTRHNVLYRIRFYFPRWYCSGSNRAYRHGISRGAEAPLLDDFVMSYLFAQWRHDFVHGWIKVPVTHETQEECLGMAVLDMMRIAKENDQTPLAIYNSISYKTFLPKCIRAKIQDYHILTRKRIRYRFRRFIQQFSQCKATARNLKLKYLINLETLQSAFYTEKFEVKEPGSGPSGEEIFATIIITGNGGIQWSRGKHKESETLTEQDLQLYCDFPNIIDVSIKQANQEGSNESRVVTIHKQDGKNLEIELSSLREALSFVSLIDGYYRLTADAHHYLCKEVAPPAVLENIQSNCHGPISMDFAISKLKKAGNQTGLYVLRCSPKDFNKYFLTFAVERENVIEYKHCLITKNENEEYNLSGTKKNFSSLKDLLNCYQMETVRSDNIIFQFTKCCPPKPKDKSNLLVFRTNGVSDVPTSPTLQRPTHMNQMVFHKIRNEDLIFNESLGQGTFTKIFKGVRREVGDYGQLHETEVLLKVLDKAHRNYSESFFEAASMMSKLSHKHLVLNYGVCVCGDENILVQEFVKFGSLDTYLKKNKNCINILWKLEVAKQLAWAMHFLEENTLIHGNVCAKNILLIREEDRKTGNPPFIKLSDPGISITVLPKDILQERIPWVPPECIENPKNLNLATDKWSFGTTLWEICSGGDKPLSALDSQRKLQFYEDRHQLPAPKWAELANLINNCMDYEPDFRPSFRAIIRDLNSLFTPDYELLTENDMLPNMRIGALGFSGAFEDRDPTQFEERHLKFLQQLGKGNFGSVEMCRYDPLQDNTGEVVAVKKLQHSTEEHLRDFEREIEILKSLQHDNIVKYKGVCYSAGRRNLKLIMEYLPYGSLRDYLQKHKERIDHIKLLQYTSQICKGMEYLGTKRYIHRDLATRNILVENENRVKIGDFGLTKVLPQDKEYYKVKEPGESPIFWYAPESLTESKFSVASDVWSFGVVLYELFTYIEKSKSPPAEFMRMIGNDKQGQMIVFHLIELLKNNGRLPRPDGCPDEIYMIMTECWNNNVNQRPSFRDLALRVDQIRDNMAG

Mitogen-activated protein kinase kinase kinase 20, sequence (Q9NYL2 whole entry): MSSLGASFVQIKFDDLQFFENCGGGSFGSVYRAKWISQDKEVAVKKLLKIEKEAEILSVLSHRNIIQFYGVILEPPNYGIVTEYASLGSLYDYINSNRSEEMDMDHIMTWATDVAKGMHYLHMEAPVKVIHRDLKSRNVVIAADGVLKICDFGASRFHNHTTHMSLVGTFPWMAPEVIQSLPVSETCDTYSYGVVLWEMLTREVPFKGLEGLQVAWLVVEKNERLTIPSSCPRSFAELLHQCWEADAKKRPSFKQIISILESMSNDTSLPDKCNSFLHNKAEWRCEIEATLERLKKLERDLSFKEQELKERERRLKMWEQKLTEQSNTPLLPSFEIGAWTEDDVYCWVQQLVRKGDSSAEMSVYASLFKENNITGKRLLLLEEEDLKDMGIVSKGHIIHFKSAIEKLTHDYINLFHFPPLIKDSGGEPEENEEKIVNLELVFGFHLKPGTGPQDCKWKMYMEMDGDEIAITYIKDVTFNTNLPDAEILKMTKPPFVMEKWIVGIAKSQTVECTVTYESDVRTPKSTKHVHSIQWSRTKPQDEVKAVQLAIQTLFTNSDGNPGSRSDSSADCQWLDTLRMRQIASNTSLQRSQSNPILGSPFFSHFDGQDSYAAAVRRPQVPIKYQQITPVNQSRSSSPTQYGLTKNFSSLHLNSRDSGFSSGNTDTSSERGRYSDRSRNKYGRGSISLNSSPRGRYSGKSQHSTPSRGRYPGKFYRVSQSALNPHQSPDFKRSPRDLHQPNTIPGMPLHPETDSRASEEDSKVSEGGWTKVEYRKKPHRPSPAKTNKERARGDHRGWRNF
MAP kinase-activated protein kinase 3, sequence (Q16644 whole entry): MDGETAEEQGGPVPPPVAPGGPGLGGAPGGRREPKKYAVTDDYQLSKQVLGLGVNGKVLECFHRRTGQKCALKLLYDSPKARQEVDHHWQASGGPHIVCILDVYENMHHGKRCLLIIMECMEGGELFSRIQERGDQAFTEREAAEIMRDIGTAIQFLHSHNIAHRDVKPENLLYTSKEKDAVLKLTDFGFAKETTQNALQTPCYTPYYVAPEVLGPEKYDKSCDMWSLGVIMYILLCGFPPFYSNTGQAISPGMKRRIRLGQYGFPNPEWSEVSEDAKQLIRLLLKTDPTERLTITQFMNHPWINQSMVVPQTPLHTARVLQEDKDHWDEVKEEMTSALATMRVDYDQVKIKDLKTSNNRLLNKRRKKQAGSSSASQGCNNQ
ALK tyrosine kinase receptor, sequence (Q9UM73 whole entry): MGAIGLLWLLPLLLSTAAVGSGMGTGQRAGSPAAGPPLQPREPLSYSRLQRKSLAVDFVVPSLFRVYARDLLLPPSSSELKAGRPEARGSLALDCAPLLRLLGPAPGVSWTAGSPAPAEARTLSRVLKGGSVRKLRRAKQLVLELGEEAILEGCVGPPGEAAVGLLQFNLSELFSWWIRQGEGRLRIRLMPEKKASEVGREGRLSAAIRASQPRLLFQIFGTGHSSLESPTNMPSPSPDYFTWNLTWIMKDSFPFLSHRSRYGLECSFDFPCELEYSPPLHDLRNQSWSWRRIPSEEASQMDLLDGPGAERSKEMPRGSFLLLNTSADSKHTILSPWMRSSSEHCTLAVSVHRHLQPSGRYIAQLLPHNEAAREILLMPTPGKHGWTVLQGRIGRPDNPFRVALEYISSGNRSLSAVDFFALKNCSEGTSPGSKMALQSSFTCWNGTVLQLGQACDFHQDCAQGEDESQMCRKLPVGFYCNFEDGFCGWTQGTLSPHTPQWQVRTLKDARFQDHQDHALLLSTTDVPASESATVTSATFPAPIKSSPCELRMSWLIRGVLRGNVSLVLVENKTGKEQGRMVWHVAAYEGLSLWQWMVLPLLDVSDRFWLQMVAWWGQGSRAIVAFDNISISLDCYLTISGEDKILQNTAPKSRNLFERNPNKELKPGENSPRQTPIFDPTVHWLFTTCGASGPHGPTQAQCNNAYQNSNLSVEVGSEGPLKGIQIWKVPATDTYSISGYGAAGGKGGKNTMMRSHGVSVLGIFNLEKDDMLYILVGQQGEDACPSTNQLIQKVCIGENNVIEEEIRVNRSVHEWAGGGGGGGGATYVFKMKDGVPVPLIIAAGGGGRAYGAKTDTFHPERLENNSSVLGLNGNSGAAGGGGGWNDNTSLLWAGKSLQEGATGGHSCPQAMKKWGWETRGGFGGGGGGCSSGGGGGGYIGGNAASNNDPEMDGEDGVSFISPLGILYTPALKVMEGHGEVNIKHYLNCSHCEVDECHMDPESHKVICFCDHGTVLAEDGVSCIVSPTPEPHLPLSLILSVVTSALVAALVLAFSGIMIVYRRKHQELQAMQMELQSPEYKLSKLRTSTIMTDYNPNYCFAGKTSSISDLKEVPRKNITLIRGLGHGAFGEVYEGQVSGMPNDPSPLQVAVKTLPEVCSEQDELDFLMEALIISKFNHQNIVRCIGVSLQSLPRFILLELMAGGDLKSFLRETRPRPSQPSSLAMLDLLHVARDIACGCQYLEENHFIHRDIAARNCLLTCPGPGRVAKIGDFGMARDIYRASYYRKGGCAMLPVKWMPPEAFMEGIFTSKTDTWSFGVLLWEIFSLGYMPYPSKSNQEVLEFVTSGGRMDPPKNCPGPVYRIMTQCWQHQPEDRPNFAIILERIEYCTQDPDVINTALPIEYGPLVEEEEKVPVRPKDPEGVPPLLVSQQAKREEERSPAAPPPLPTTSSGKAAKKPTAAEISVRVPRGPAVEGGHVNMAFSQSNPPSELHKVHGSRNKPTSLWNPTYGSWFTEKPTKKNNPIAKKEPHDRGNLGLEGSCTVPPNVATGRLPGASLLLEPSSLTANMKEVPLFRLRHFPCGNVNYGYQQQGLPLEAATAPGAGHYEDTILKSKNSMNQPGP
Tyrosine-protein kinase Fyn, sequence (P06241 whole entry): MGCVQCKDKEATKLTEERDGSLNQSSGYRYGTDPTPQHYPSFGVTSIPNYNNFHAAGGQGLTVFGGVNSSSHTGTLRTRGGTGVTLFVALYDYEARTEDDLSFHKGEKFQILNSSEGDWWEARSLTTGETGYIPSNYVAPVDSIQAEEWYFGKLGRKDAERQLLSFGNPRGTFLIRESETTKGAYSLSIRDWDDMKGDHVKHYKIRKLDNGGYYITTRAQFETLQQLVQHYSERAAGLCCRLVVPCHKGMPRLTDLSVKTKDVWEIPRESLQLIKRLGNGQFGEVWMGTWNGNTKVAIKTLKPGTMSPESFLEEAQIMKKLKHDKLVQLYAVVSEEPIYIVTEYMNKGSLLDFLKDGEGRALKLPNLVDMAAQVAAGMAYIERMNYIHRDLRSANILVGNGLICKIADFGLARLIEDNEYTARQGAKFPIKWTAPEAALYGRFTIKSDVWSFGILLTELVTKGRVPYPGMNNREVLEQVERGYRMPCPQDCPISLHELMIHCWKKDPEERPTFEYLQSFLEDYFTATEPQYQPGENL
Protein-tyrosine kinase 6, sequence (Q13882 whole entry): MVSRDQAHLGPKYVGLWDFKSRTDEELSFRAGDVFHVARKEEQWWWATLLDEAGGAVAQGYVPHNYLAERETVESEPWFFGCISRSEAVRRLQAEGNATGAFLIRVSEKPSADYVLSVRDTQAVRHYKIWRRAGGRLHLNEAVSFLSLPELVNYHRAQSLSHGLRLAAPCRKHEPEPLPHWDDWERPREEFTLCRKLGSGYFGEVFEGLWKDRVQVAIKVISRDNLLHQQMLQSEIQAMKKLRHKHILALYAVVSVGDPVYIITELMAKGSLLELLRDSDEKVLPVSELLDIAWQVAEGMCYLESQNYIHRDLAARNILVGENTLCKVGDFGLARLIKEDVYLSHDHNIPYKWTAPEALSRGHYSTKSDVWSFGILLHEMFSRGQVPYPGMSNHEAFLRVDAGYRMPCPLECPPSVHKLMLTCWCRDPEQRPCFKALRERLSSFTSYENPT

Ki [2]: > 2510 nM (inactive)
Ki [3]: > 3160 nM (inactive)
Ki [4]: > 398 nM (inactive)
Ki [5]: > 794 nM (inactive)
Ki [6]: 126 nM (active)
Ki [7]: 251 nM (active)
Ki [8]: 631 nM (active)
Ki [9]: 316 nM (active)
Ki [10]: 501 nM (active)
Ki [11]: > 3980 nM (inactive)
Ki [12]: > 3160 nM (inactive)
Ki [13]: > 1260 nM (inactive)
Ki [14]: > 5010 nM (inactive)
Ki [15]: 316 nM (active)
Ki [16]: > 7940 nM (inactive)
Ki [17]: > 10000 nM (inactive)
Ki [18]: 200 nM (active)
Ki [19]: 794 nM (active)
Compound: NC1CCCCC1Nc1nccc(-c2c[nH]c3ncccc23)n1 (centres undefined)
Ki [1]: 39.8 nM (active)
